These results are taken from patent US20160076098A1, “METHODS OF DIAGNOSING AND TREATING CHRONIC PAIN” (priority 2013, published 2016).

Data set [1] has as its system β-endorphin. In words: β-endorphin levels in plasma of CRPS patients before and after ketamine therapy. The format is in vivo, human. The following applies: after vs before ketamine therapy. As to the method: FIG. 8 is a graph showing no significant difference in the basal (pre-treatment) plasma levels of β-endorphin between patients and healthy controls. […] Shown are β-endorphin levels in the plasma from CRPS patients (responders and non-responders to ketamine therapy) before treatment and healthy controls and in CRPS patients before and after ketamine therapy. Responders; n=11, non-responders; n=6 and control; n=5. Results represent mean±SEM. The statistical significance was calculated using one-way ANOVA*: p<0.05 relative to non-responders after treatment.
Analgesic pathway targets were selected for validation. Cross talk between analgesic and endocrinal systems is known (FIG. 6). Pro-opiomelanocortin (POMC) is a polypetide precursor of many peptide hormones in the hypothalamopitiutary axis, including Adrenocorticotrophic hormone (ACTH), Melanocyte stimulating hormone (MSH), and Beta-endorphin. Prohormone convertase cleaves POMC yielding important hormonal peptides ACTH, MSH, […] and β-endorphin. β-endorphin is an important member of the endogenous opioid system. Its release is important in modulation of mood, pain, inflammatory responses. Several studies have linked the expression of POMC and its daughter peptide β-endorphin to placebo effect. Non-Responders to ketamine therapy had increased expression of POMC mRNA in blood relative to the responders and healthy controls (FIG. 7). […]

Data set [2] deals with CYP3A4 (Homo sapiens, UniProt P08684). The conditions noted are these: known route of elimination; cited from earlier work.
Chain of CYP3A4 (P08684 whole entry): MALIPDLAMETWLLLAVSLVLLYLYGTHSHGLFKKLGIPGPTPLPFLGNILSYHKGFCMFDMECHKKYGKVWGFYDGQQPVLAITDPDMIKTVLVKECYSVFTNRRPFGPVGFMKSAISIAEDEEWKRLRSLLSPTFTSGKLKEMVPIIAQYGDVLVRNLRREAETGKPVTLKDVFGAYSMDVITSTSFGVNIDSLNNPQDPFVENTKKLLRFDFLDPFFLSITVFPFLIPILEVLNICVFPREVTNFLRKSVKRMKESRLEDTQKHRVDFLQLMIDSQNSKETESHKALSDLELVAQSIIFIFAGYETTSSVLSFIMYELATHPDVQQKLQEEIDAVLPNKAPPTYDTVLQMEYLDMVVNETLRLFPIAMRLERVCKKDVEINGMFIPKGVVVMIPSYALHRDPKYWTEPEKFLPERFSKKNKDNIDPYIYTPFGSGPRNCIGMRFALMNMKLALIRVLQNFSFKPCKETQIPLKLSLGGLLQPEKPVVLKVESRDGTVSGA
For data set [3], the system named is miRNAs in blood of CRPS patients. The conditions noted are these: blood of responders, after vs before ketamine treatment. The protocol:
The experiments described herein were conducted in order to determine the utility of miRNAs as biomarkers for CRPS in both the effectiveness of a treatment and the severity and progression of individual cases. As presented herein, the changes in levels of 758 miRNAs were examined in blood of 19 CRPS patients before and after ketamine treatment, using Taqman low-density array cards.
Ketamine Treatment Ketamine treatment was given to the subjects by sub-anesthetic continuous intravenous administration. Infusion started at a rate of 10 mg/hr and increased in steps of 10 mg/hr at every 2 hours to a maximum of 40 mg/hr (see FIG. 4). Blood samples were collected from CRPS patients before and after ketamine treatment. miRNA Analysis
Total RNA was isolated from blood samples using mirVana kit (Applied Biosystems) and cDNA synthesis was performed. Levels of 758 miRNAs were analyzed by using a Taqman low-density array (TLDA) card.
A positive fold change indicates a higher expression of the miRNA in responders, while a negative fold change indicates a lower expression of the miRNA in responders.

Data set [4] has as its system MCP-1, IFNγ and IL-1β. In words: Inflammatory markers in CRPS patients following ketamine treatment. The data set is classed as in vivo, human. The following applies: p<0.05. An excerpt: Additional analysis comparing miRNA profiles from responders, non-responders and 20 control subjects enabled identification of additional miRNAs.
In data set [5] the test system is RAW 264.7 cells. In words: Exosomal RNA sequencing (NGS) of naive and LPS-stimulated RAW 264.7 cells. The following applies: exosomal transcript level after LPS stimulation of RAW 264.7 cells compared with exosomes from naive cells. The format is cell-based, mouse. The protocol: RAW 264.7 cells (ATCC) and RAW-Blue cells (Invivogen) were maintained in complete culture media (1×DMEM, 10% heat inactivated FBS). For exosome collection, RAW 264.7 cells (1×10^7) were plated in 150 mm dishes with complete culture media. At 24 hr, media was replaced with exosome-depleted media (1×DMEM, 10% heat-inactivated FBS depleted of exosomes by ultracentrifugation) with or without 1 μg/ml LPS (Sigma)) and incubated overnight. Media was collected in 50 ml tubes at 24 hr for exosome purification. Human THP1 macrophages were used in some experiments.
Exosome purification from cell culture media was performed as described (McDonald et al., 2013, J Visualized Exp 2013(76):e50294). […]
The SOLiD whole transcriptome analysis kit protocol with the fragmentation step omitted was used to generate a cDNA library for each sample. […] RNA concentration was measured using Nanodrop 1000 (NanoDrop Technologies, Wilmington, Del.). Total RNA from 3 independent exosome purifications was pooled to obtain 4 μg exosomal RNA per library (due to a limited amount of RNA in individual preparations), analyzed for integrity using the Agilent RNA 6000 Pico Kit (RNA integrity number between 1.6 and 2.1), and gel purified. […]

Data set [6] concerns exosomes from human serum. In words: miRNA profiling of human serum-derived exosomes, patients with CRPS vs control subjects (TLDA cards). As to the method: Exosome purification from cell culture media was performed as described (McDonald et al., 2013, J Visualized Exp 2013(76):e50294). Centrifugation was used to remove cell debris (500×g for 10 min); the supernatant was transferred and centrifuged (16,500×g for 20 min) Cell-free supernatants were filtered (0.22 μm; VWR, Radnor, Pa.) and exosomes were pelleted by ultracentrifugation (120,000×g for 70 min) The exosomal pellet was resuspended in buffer specific to downstream experiments and vortexed 2×15 seconds. For RNA purification, RNase inhibitors were added after the first centrifugation step at 1 U/ml (RNAsin Plus; Promega, Madison, Wis.) and at all subsequent steps at 1 U/μl. […]
TLDA microfluidic cards (Life Technologies) were used for miRNA profiling as previously described. […] For miRNAs profiled from exosomes collected from RAW 264.7 cells, significance was determined by applying a P value cutoff of 0.05 to the results of a paired-samples t test. For human exosomal miRNAs, significance was determined by applying the Benjamini-Hochberg false discovery rate correction to the results of a 2-tailed t test.
To determine whether exosomal miRNAs reflect the miRNA signature in whole blood of patients with CRPS, miRNAs in exosomes purified from the serum of 6 patients with CRPS and 6 healthy controls we analyzed (FIG. 38).

The mark [7] stands for this setting: negative = lower expression following treatment.

In the case of `CNC1(c2ccccc2Cl)CCCCC1=O` (stereo not drawn) [ketamine], the β-endorphin plasma level result in data set [1] (non-responders) is listed as “but not the non-responders”. Moreover, the β-endorphin plasma level result in data set [1] (responders) was “induced an increase in β-endorphin”. In data set [2], the Metabolism entry is “demethylated mostly by CYP3A4 followed by conjugation with glucuronic acid”. Besides, in data set [3] (setting [7]), the “Fold change RNU44.A” value was −1.80, the “Fold change hsa-miR-337-3p” value is on record as −18.20, the “Fold change hsa-miR-597” value was −16.23 and the “Fold change hsa-miR-605” value is −36.08. Besides, in data set [3] (positive = higher expression following treatment), the “Fold change hsa-miR-650” value came out at 8.01. Moreover, in data set [4], the IFNγ level result is “decreased significantly”, the IL-1β level entry was “decreased significantly” and the MCP-1 level entry is reported as “decreased significantly”.
As for Gdf11, the PS/cpntrol ratio in data set [5] is given as 4.82.
As to Pgcp, the PS/cpntrol ratio in data set [5] is reported as 2.94.
Consider “RNU48 (GAUGACCCCAGGUAACUCUGAGUGUGUCGCUGAUGCCAUCACCGCAGCGCUCUGACC; chemistry not fully specified; listed as Homo sapiens)”, for which, in data set [6], the ddct is reported as 2.147 and the fold-change is recorded as −4.429.
